Reference: US20040044008A1, “Use of therapeutic benzamide derivatives” (priority 2000, published 2004)

Biological target: human MTP (Homo sapiens, UniProt P55157)
Assay: human MTP activity assay (SPA, 3H-triolein transfer between liposomes)
Type: biochemical
Details: human MTP-mediated 3H-triolein transfer from donor to acceptor liposomes, 25 min incubation at 37° C., streptavidin-SPA beads
Excerpt: Such derivatives are clear to those skilled in the art, without undue experimentation, and with reference to the teaching of Burger's Medicinal Chemistry And Drug Discovery, 5th Edition, Vol 1: Principles And Practice, which is incorporated herein by reference. […] MTP inhibitors may be used in the treatment of non-insulin dependent diabetes mellitus, insulin resistance, coronary heart disease, prevention of stroke, pancreatitis, hypercholesterolemia, hypertriglyceridemia, hyperlipemia, mixed dyslipidemia, post-prandial hyperlipemia, atherosclerosis and obesity. The ability of the compounds of this invention to inhibit human MTP activity is measured by an in vitro assay where MTP transfers 3H-triolein between phosphatidylcholine liposomes. The specificity of the compounds of the invention is established by comparing the effects on apoB-100 and apoprotein A-1 production. A specificity of at least 100 is preferred.
The human MTP activity assay was established using SPA technology. Donor liposomes were prepared with 3H-triolein and phosphatidylcholine, while acceptor liposomes contained biotinylated phosphatidylethanolamine and phosphatidylcholine. The MTP-mediated 3H-triolein transfer onto acceptor liposomes was allowed by a 25 min incubation at 37° C., and quantified by the addition of streptavidin-SPA beads.

Sequence of human MTP (P55157 19-894): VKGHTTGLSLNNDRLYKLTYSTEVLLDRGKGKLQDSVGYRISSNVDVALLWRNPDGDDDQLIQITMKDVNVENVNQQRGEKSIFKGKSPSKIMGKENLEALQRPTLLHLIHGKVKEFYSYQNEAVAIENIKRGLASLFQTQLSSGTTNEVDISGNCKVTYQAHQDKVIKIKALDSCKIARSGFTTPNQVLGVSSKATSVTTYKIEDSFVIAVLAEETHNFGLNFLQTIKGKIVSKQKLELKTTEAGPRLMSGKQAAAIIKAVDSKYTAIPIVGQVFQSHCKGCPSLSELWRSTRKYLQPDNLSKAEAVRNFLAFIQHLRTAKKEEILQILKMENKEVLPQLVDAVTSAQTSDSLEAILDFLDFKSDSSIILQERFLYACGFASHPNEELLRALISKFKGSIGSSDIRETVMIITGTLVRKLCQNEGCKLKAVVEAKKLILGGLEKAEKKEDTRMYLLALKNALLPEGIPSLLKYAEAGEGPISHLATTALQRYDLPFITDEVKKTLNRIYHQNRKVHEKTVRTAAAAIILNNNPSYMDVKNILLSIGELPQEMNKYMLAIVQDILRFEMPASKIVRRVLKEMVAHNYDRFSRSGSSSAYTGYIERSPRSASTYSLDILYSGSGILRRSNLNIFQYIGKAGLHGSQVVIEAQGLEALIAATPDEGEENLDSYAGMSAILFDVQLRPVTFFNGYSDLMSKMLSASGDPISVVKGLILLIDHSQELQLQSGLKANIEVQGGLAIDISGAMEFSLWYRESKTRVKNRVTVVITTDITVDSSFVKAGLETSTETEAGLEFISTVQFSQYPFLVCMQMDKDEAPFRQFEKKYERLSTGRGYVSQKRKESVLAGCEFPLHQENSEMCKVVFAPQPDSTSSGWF
Sequence of human MTP (P07237 18-508 partner): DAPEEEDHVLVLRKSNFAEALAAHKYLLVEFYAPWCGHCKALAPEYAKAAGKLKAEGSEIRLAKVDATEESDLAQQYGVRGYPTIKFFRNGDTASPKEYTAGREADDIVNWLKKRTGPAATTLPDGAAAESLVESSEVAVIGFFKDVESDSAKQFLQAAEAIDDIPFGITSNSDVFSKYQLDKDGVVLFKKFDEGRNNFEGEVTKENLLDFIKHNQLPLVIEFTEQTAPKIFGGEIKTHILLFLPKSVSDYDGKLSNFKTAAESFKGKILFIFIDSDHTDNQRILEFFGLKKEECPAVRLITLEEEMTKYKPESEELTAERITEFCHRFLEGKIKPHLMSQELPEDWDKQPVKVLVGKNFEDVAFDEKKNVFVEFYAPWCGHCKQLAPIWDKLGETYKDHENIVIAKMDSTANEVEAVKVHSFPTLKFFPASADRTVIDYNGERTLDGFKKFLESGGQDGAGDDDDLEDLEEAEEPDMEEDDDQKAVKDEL

IC50 | SMILES
0.3 nM | Cc1ccc(C(=O)Nc2ccc(N3CCN(Cc4cccc(C#N)c4)CC3)cc2)c(-c2ccc(C(C)C)cc2)c1 [Example 2, 4′-Isopropyl-5-methyl-biphenyl-2-carboxylic acid [4-[4-(3-cyano-benzyl)-piperazin-1-yl]-phenyl]-amide]
0.2 nM | COc1cccc(C(=O)Nc2ccc(N3CCN(Cc4cccc(C#N)c4)CC3)cc2)c1-c1ccc(C(C)C)cc1 [Example 3, 4′-Isopropyl-6-methoxy-biphenyl-2-carboxylic acid [4-[4-(3-cyano-benzyl)-piperazin-1-yl]-phenyl]-amide]
0.2 nM | Cc1cccc(C(=O)Nc2ccc(N3CCN(Cc4cccc(C#N)c4)CC3)cc2)c1-c1ccc(C(C)C)cc1 [Example 4, 4′-Isopropyl-6-methyl-biphenyl-2-carboxylic acid [4-[4-(3-cyano-benzyl)-piperazin-1-yl]-phenyl]-amide]
0.2 nM | Cc1cccc(C(=O)Nc2ccc(N3CCN(Cc4cccc(C#N)c4)CC3)cc2)c1-c1ccc(C(F)(F)F)cc1 [Example 5, 6-Methyl-4′-trifluoromethyl-biphenyl-2-carboxylic acid [4-[4-(3-cyano-benzyl)-piperazin-1-yl]-phenyl]-amide]
0.3 nM | Cc1ccc(C(=O)Nc2ccc(N3CCN(Cc4cccc(-c5nc(C)no5)c4)CC3)cc2)c(-c2ccc(C(C)C)cc2)c1 [Example 6]
8 nM | NC(=O)CN1CCN(c2ccc(NC(=O)c3ccccc3-c3ccc(C(F)(F)F)cc3)cc2)CC1 [Example 37, 4′-Trifluoromethyl-biphenyl-2-carboxylic acid [4-(4-carbamoylmethyl-piperazin-1-yl)-phenyl]-amide]
0.3 nM | COc1cccc(C(=O)Nc2ccc(N3CCN(CC(N)=O)CC3)cc2)c1-c1ccc(C(C)C)cc1 [Example 38, 4′-Isopropyl-6-methoxy-biphenyl-2-carboxylic acid [4-(4-carbamoylmethyl-piperazin-1-yl)-phenyl]-amide]
0.3 nM | Cc1cccc(C(=O)Nc2ccc(N3CCN(CC(N)=O)CC3)cc2)c1-c1ccc(C(C)C)cc1 [Example 39, 4′-Isopropyl-6-methyl-biphenyl-2-carboxylic acid (4-(4-carbamoylmethyl-piperazin-1-yl)-phenyl]-amide]
0.2 nM | Cc1noc(-c2cccc(CN3CCN(c4ccc(NC(=O)c5cccc(C)c5-c5ccc(C(C)C)cc5)cc4)CC3)c2)n1 [Example 61, 4′-Isopropyl-6-methyl-biphenyl-2-carboxylic acid (4-(4-(3-(3-methyl-[1,2,4]oxadiazol-5-yl)-benzyl)-piperazine-1-yl)-phenyl)-amide]
0.3 nM | O=C(Nc1ccc(N2CCN(Cc3ccc[nH]3)CC2)cc1)c1ccccc1-c1ccc(C(F)(F)F)cc1 [Example 62, 4′-Trifluoromethyl-biphenyl-2-carboxylic acid [4-(4-(1H-pyrrol-2-ylmethyl)-piperazin-1-yl)-phenyl]-amide]
0.7 nM | Cc1ccc(C(=O)Nc2ccc(N3CCN(Cc4ccc[nH]4)CC3)cc2)c(-c2ccc(C(C)C)cc2)c1 [Example 63, 4′-Isopropyl-5-methyl-biphenyl-2-carboxylic acid [4-(4-(1H-pyrrol-2-ylmethyl)-piperazin-1-yl)-phenyl]-amide]
